Read-outs that look alike come from different tables or passages of the source.

Experiment [1] deals with MC38 murine colon tumor. Nature of the experiment: Immune modulatory activity in MC38 murine colon tumor model. The experiment is classed as in vivo, C57BL/6J mice. As to conditions: 50 mg/kg orally twice per day for five days. How it is done:
Female C57BL/6J mice between 8-10 weeks of age were used. Murine colon tumor MC38 cells were detected as free of Mycoplasma spp prior to injection into animals. MC38 cells at 10^5 cells per mouse in 100 μL culture medium were implanted subcutaneously into the left flank region of mice with a 25⅝-gauge needle (n=5-6 animals per group). […] Treatments were initiated after randomization with inclusion of tumors at approximately 150 mm^3. Tumor growths were measured with an electronic caliper and volumes are calculated as L×W×W/2. Tumor size and animal body weight were measured twice a week after tumor cell inoculation. All experiments were conducted in accordance with the protocols approved by National Health Research Institutes' Institutional Animal Care and Use Committee.
Ten days after the treatment, the tumor cells and spleen cells in the mice were collected to study effect of this compound on the immune cells, i.e., tumor-associated macrophages and T cells. Briefly, tumor and spleen from vehicle control and Compound 11 were harvested and isolated into single cells. Single cell suspension were pre-incubated with mouse Fc receptor blocker before staining with appropriate antibody conjugate for Cd45, Cd3, Cd4, Cd8, F4/80, Cd11b, Cd86, AXL, MERTK and analyzed by flow cytometry to quantify the accumulation of immune cells including Cd4 (Cd3^+Cd4^+), Cd8 (Cd3^+Cd8^+), macrophages (Cd11b^+F4/80^+), tumor associated macrophage (M2, Cd11b^+F4/80^+Cd206^+), classical macrophage (M1, Cd11b^+F4/80+/Cd86^+) populations. For intracellular staining of analysis of tumor-associated macrophage marker Cd206 expression, cells were fixed by using Cytofix/Cytoperm™ kit (BD Biosciences, Franklin Lakes, New Jersey) after surface marker staining and then stain with anti-mouse Cd206 antibody conjugate. Live/dead fixable dye were used to exclude non-viable cells from the analyses.

The subject of experiment [2] is MC-38 murine colon tumor. Nature of the experiment: In vivo activity against colon tumor (MC38). As to conditions: day 17 after the treatment; 50 mg/kg orally twice a day for 5 days; control 2000 mm^3. On the set-up: species or system C57BL/6J mice. How it is done:
Compound 11 was evaluated for its in vivo efficacy in treating colon tumor. Female C57BL/6J mice between 8-10 weeks of age were used. Murine colon tumor MC38 cells were detected as free of Mycoplasma spp prior to injection into animals. MC38 cells at 10^5 cells per mouse in 100 μL culture medium were implanted subcutaneously into the left flank region of mice with a 25⅝-gauge needle (n=8 animals per group). […] Treatments were initiated after randomization with inclusion of tumors at approximately 50 mm^3.
Control animals were orally administered with vehicle only. Tumor growths were measured with an electronic caliper and volumes were calculated as L×W×W/2. Tumor size and animal body weight were measured twice a week after tumor cell inoculation. After the treatment, tumor volumes and body weight changes were measured.

The test system of experiment [3] is MDA-MB-231 TNBC cells. Description: In vivo activity against breast cancer (MDA-MB-231 xenograft). As to conditions: day 35 after the treatment, from 150 mm^3 (control 600 mm^3). Set-up: species or system NOD/SCID mice. On the procedure:
Compound 11 was further evaluated for its in vivo efficacy in treating breast cancer. MDA-MB-231 TNBC cell lines were used. Prior to injection into animals, the cancer cells were detected as free of Mycoplasma spp. Five million MDA-MB-231 cells in culture medium and matrigel (1:1, v/v) were injected subcutaneously into the left flank region of the NOD/SCID mice (n=8 animals per group). Treatments were initiated after randomization with inclusion of tumors at approximately 150 mm^3. The compound was prepared using 10% DMA: 40% PEG400:50% (1% CMC) (v/v/v).
Each group was administered orally twice a day for five days. Control animals were orally administered with vehicle only. Tumor growths were measured with an electronic caliper and volumes were calculated as L×W×W/2. Tumor size and animal body weight were measured twice a week after tumor cell inoculation.

For experiment [4], the target named is T1, AXL (Homo sapiens, UniProt P30530).
T1 sequence (P30530 26-894): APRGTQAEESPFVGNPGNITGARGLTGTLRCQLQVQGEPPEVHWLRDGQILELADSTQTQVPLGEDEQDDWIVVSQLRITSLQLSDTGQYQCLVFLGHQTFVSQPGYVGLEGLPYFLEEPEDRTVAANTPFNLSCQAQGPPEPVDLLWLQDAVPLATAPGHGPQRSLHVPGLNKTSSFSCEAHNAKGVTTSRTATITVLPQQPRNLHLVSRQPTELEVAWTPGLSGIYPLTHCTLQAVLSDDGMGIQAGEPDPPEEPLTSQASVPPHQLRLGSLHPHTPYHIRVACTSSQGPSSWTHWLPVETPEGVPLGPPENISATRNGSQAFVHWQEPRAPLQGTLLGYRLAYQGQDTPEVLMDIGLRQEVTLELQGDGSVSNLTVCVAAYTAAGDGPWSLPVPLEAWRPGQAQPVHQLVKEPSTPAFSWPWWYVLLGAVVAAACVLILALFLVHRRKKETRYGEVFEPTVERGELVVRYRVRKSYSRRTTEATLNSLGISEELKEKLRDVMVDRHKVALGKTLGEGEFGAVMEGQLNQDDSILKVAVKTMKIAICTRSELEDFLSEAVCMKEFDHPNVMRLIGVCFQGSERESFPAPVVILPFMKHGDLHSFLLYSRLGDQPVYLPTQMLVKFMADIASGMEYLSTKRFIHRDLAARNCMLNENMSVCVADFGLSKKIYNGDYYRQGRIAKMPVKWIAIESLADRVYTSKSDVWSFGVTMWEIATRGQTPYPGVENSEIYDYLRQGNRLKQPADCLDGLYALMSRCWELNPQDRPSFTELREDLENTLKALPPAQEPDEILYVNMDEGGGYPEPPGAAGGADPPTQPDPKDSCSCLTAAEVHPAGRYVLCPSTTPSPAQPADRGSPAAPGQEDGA
Nature of the experiment: AXL enzymatic assay (ADP-Glo). The class given is biochemical. As to conditions: ATP 50 μM.

Experiment [5] addresses T2, MERTK (Homo sapiens, UniProt Q12866).
T2 sequence (Q12866 21-999): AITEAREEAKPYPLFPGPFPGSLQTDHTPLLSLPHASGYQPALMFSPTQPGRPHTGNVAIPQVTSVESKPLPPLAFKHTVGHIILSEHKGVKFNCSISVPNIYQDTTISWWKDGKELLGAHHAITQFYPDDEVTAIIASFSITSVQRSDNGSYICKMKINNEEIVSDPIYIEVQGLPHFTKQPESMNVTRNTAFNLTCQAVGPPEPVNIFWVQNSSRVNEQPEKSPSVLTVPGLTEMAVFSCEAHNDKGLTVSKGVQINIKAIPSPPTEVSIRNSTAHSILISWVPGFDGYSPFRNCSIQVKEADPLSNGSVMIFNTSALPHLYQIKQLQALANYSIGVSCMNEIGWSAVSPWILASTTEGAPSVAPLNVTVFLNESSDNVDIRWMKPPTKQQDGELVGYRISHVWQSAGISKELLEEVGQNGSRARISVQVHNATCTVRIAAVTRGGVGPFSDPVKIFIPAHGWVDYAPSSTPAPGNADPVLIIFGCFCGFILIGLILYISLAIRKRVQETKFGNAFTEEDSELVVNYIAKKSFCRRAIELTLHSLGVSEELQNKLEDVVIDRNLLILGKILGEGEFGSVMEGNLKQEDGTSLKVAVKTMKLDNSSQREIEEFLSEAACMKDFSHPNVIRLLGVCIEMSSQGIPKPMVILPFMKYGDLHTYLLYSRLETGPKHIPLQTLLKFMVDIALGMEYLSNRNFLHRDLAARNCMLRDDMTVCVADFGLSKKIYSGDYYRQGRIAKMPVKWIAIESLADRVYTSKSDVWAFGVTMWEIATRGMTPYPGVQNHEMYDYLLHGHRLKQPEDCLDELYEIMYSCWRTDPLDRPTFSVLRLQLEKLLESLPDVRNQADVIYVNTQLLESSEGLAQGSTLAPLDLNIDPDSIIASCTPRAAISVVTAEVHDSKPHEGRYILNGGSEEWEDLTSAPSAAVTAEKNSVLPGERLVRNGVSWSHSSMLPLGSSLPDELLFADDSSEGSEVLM
Description: MERTK enzymatic assay (Kinase Glo). The class given is biochemical. As to conditions: ATP 12 μM.

Experiment [6] relates to MER/AXL. Nature of the experiment: Dual MER/AXL inhibition (enzymatic). The experiment is classed as biochemical. As to conditions: class for both MER and AXL.
The target in experiment [7] is T3, TYRO3 (Homo sapiens, UniProt Q06418).
T3 sequence (Q06418 41-890): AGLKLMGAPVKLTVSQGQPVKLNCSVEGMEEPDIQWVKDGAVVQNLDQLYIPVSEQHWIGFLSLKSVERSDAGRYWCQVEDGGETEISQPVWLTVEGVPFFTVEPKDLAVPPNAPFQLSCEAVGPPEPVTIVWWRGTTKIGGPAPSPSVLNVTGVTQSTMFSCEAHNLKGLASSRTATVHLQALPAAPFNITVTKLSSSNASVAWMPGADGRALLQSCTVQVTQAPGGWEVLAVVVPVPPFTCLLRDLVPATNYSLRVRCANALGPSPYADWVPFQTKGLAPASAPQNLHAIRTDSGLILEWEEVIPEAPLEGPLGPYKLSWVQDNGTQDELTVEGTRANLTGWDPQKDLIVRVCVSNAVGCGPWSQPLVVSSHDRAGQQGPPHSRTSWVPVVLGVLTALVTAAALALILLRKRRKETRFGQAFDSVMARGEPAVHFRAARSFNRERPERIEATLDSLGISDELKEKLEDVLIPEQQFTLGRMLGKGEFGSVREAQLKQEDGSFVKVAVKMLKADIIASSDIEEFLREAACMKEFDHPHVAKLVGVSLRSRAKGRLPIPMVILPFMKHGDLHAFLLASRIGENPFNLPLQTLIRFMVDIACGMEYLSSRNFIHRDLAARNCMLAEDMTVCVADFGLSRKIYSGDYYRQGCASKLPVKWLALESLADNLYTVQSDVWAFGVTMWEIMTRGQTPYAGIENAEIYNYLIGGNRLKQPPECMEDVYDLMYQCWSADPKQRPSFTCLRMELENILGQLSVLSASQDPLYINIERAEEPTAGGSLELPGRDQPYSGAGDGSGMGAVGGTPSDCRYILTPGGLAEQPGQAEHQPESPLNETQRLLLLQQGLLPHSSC
Description: TYRO3 enzymatic assay (ADP-Glo). As to conditions: ATP 50 μM. The experiment is classed as biochemical. How it is done: A study was conducted to compare exemplary compounds of formula (I) in inhibiting TAM activities, including MERTK, AXL, and TYRO3. An enzymatic assay was used in the study. A purified Kinase (i.e., MERTK, AXL, or TYRO3) was incubated with a compound or DMSO (control) for around 15 minutes in an assay buffer (25 mM Tris pH 7.4, 10 mM MgCl2, 4 mM MnCl2, 2 mM DTT, 0.01% BSA, 0.02% TritonX-100, 0.01% Brij35 and 0.5 mM Na3VO4 for MERTK; 40 mM Tris pH 7.4, 20 mM MgCl2, 2 mM DTT, 0.01% BSA and 0.5 mM Na3VO4 for AXL; and 25 mM Tris pH 7.4, 10 mM MgCl2, 4 mM MnCl2, 2 mM DTT, 0.01% BSA and 0.5 mM Na3VO4 for TYRO3). […] The mixture was incubated for 3 hours at 30° C. The luminescence was calculated to determine the kinase activity using a Kinase Glo assay kit for MERTK and an ADP-Glo Kinase assay kit for AXL and TYRO3 following the manufacture's instructions (Promega). Inhibition rates and half maximal inhibitory concentration (IC50) values were calculated. High percentage inhibition rates and low IC50 values are indicatives of high potency of the test compound.

[8] abbreviates: purified kinase, read-out: AXL Enzymatic Inhibition (%).
[9] abbreviates: purified kinase, read-out: MER Enzymatic Inhibition (%).

Take `Cn1cc(-c2oc3ncnc(Oc4ccc(NC(=O)c5cccn(-c6ccc(F)cc6)c5=O)cc4)c3c2-c2cccc(N)c2)cn1` [Compound 11, N-(4-{[5-(3-aminophenyl)-6-(1-methyl-1H-pyrazol-4-yl)furo[2,3-d]pyrimidin-4-yl]oxy}phenyl)-1-(4-fluorophenyl)-2-oxo-1,2-dihydropyridine-3-carboxamide]: the “expression of MERTK in CD4+ T cells (spleen)” value in experiment [1] (decreased from 7%) amounted to 3%. Also, the “level of M2-phenotype macrophages in the tumor cells” value in experiment [1] (decreased from 10%) was determined as 5%. In addition, the “expression of AXL in CD8+ T cells (spleen)” value in experiment [1] (decreased from 13%) came out at 5%. Besides, the “level of macrophages in the tumor cells” value in experiment [1] (decreased from 18%) is 13%. Besides, the “expression of MERTK in CD8+ T cells (spleen)” value in experiment [1] (decreased from 32%) turned out to be 20%. In experiment [1] (decreased from […]), the “expression of AXL in CD4+ T cells (spleen)” value amounted to 0.7%. In experiment [1] (increased from 5%), the “level of CD4+ T cells in the spleen cells” value is 10%. In addition, the “level of CD8+ T cells in the spleen cells” value in experiment [1] (increased from 18%) amounted to 28%. Also, the “level of total T cells in the spleen cells” value in experiment [1] (increased from 30%) came out at 43%. Further, the tumor size in experiment [1] (10 days after treatment, from 200 mm^3 (vehicle 1000 mm^3)) is 350 mm^3. Also, the tumor volume in experiment [2] amounted to 300 mm^3; in experiment [3] (25 mg/kg orally twice a day for five days) it was 300 mm^3; in experiment [3] (50 mg/kg orally twice a day for five days), 220 mm^3.

Turning to `CC(=O)Nc1cccc(-c2c[nH]c3ncnc(Oc4ccc(NC(=O)c5cccn(-c6ccc(F)cc6)c5=O)cc4)c23)c1` [Compound 4], the IC50 in experiment [4] (read-out: IC50 AXL) is 10.5 nM; in experiment [4] (setting [8]) it was < 20 nM; in experiment [5] (read-out: IC50 MERTK), 22.9 nM; in experiment [5] (setting [9]), 20 to 100 nM; in experiment [6], 20 to 100 nM; in experiment [7], 15.6 nM.

As for `Nc1cccc(-c2c[nH]c3ncnc(Oc4ccc(NC(=O)c5cccn(-c6ccc(F)cc6)c5=O)cc4)c23)c1` [Compound 3], the IC50 in experiment [4] (read-out: IC50 AXL) was 12.9 nM; in experiment [4] (setting [8]), < 20 nM; in experiment [5] (read-out: IC50 MERTK), 11.6 nM; in experiment [5] (setting [9]), < 20 nM; in experiment [6] it was < 20 nM; in experiment [7] it was 18.3 nM.

(Values after patent US20260070911A1, “INHIBITORS OF TAM RECEPTORS” (National Health Research Institutes, priority 2022, published 2026).)
